Experiment [1] relates to Male Swiss mice. Description: Pre-pulse inhibition (PPI), impairment induced by amphetamine. The format is in vivo. Here is the method: Male Swiss mice (25-30 g) originated from the Central Animal Farm of the School of Medicine of Ribeirão Preto (FMRP-USP) were maintained in groups of five animals per box (41×33×17 cm) in a temperature controlled room (24±2° C.) with a 12×12 h light-dark cycle. They received water and food ad libitum throughout the study period.
Cannabidiol (CBD; THC Pharm, 15-60 mg/kg) and HU-485 (1-10 mg/kg) were administered intraperitoneally (ip). All drugs were dissolved in 2% Tween 80 in sterile saline.
The PPI test was conducted simultaneously in two identical startle response systems (Med Associates, USA). A continuous acoustic signal provided a background white noise level of 65 dB. The pulse consists of a 105 dB white noise burst with a rise/decay of 5 ms and duration of 20 ms. The pre-pulse comprised pure 7000 Hz tones, 10 ms duration, with intensities set at 80, 85, and 90 dB. The setups were daily calibrated to ensure equal sensitivity throughout the experiments. Calibration was performed by adjusting the gain on the load cell amplifier to 150 arbitrary units (AU) at a standard weight appropriated for a 40 g mice. The limits of the load cell were −2047 to +2047 AU. Thirty min after the injection of the tested compounds mice received i.p. injections of amphetamine 10 mg/kg or vehicle. […] The first 10 pulse-alone trials allow for the within-session habituation to the startle stimulus and are not considered for PPI statistical analysis. The test consisted of 64 pseudo-random trials divided into eight different groups presented with an inter-stimulus interval of 30 s, and consisting of pulse alone (105 dB), pre-pulse alone (80, 85, or 90 dB), pre-pulse+pulse with 100 ms interval between pre-pulse and pulse, and no stimulus presented. […] Mean acoustic startle response to pulse-alone (P) trials and each pre-pulse+pulse (PP+P) trial was recorded for each subject. PPI was calculated by expressing the pre-pulse+pulse startle amplitude as a percentage of decrease from pulse-alone startle amplitude, according to the following formula: % PPI=100−[100×(PP+P/P)]. This transformation reduces statistical variability attributable to differences between animals and it is a direct PPI measure. Antipsychotic drugs typically attenuate PPI impairment induced by amphetamine.
Results were analyzed by one-way ANOVA followed by Duncan test. […]
Animals received a first injection of vehicle (V) or CBD, followed 30 min later, by vehicle (n=9) or amphetamine 10 mg/kg (V+amphetamine group=9 animals). PPI was evaluated at three-stimuli intensity (90, 85 and 80 dB). […]
Animals received a first injection of vehicle (V) or HU-485, followed 30 min later, by vehicle (n=7) or amphetamine 10 mg/kg (V+amphetamine group=7 animals). PPI was evaluated at three-stimuli intensity (90, 85 and 80 dB). […]

Experiment [2] deals with male C57BL/6J mice. Put plainly: Pre-pulse inhibition (PPI) test, impairment induced by MK-801. The format is in vivo. Here is the method:
The experiments were performed using male C57BL/6J mice weighting 25-30 g. The animals were maintained throughout the experimental period under standard laboratory conditions with free access to water and food will be used.
HU-474 (3 and 10 mg/kg) was dissolved in 2% Tween 80 in sterile saline (vehicle). MK-801 (a NMDA antagonist, 0.5 mg/kg, Sigma, USA) was dissolved in saline. Drugs were administered intraperitoneally (ip) at 10 mL/kg volume.
The animals (n=9-11/group) received i.p. administration of vehicle or HU-474 (3 and 10 mg/kg) followed, 30 minutes later, by saline or MK-801 (0.5 mg/kg), resulting in the following experimental groups: vehicle+saline, HU 10+saline, vehicle+MK-801, HU 3+MK-801, HU 10+MK-801. The animals were submitted to PPI test 20 minutes after the last drug injection.
The PPI was carried out in three consecutive steps. The first consisted of an acclimation period during which no stimulus was presented. In the second step, called habituation, only the stimulus that triggers the startle (pulse) was presented. […] During this session the stimuli are presented at regular intervals of 30 s, 8 presentations of each stimulus. The percentage of the PPI was expressed as the percent inhibition of startle amplitude in response to multiple presentations of the pulse preceded by pre-pulse (PP), depending on the amplitude of the response only to the pulse (P), which was obtained in the following formula: % PPI=100−((PP/P)×100). Using this formula 0% represents no difference between the amplitude of startle triggered only by the pulse or pulse preceded by the pre-pulse and therefore no pre-pulse inhibition. This transformation was performed in order to reduce the statistical variability attributable to differences between animals and represents a direct measure of pre-pulse inhibition (Issy et al., 2009).
The percentage of PPI was analyzed by repeated measures MANOVA with the treatment as the independent factor and the prepulse intensity (80, 85 and 90 dB) as repeated measure.

For experiment [3], the system named is Swiss mice. Put plainly: Forced swimming test (FST), mice. The format is in vivo. Here is the method:
(§1) Male Wistar rats (220-250 g) and Swiss mice (25-30 g) originated from the Central Animal Farm of the School of Medicine of Ribeirio Preto (FMRP-USP) were maintained in groups of five animals per box (41×33×17 cm) in a temperature controlled room (24±2° C.) with a 12×12 h light-dark cycle. They received water and food ad libitum throughout the study period.
(§2) HU-474 (1, 3 and 10 mg/kg) was administered intraperitoneally (IP) in mice at 10 mL/kg volume and HU-475 (1, 3 and 10 nmol) was injected intra-dIPAG in rats. Both drugs were dissolved in 2% Tween 80 in sterile saline.
Animals were individually submitted for 6 min of forced swimming in glass cylinders (height 25 cm, diameter 17 cm) containing 10 cm of water. The mice were videotaped and the immobility time (characterized by slow movements necessary to avoid drowning) was measured during the last 4-min period. The water was changed after each trial to maintain the temperature at 23-25° C. and to prevent the influence of alarm substances (Zanelati et al., 2010).
(§3) Results from HU-475 and HU-474 tests in the elevated plus maze were analyzed by Kruskal-Wallis followed by Mann-Whitney tests. Data from animals tested in the FST were analyzed by one-way ANOVA followed by Duncan test.

In experiment [4] the test system is Swiss mice. Put plainly: Elevated plus maze (EPM), mice, HU-474 IP. The format is in vivo. Here is the method: as §1, §2
The wood EPM used to perform the experiments was located in a sound attenuated and temperature controlled room (23° C.), with one incandescent light (40 W) placed 1.3 m away from the maze. The apparatus consists of two opposing open arms (50×10 cm) without side walls, perpendicular to two enclosed arms (50×10×40 cm), with a central platform common to all arms (10×10 cm). The apparatus is elevated 50 cm above the ground and has an acrylic edge (1 cm) in the open arms to prevent animal falls. In this model, rodents naturally avoid the open arms, exploring more extensively the enclosed arms. Anxiolytic drugs increase the exploration in open arms without affecting the number of enclosed arms entries, which is usually used to assess general exploratory activity (File, 1992). Ten minutes after the last injection the animal was placed on the central platform of the maze with the head facing one of the enclosed arms. The test lasted for 5 min and was recorded. The animal behavior was analyzed with the help of the Anymaze Software (version 4.5, Stoelting). This software indicates the location of the animal in the EPM and automatically calculates the percentage of entries (Peo) and time spent in the open arms (Pto) and the number of entries in the enclosed arms (EA). Animals were only considered to enter an open or enclosed arm when 90% of their bodies were inside the region. All experiments were performed in the morning period (8 to 12 a.m.).
Similar to 5.1 except that the each arm measured 30×5 cm. 5.3 Forced Swimming Test (FST) Mice
as §3

Experiment [5] has as its system Male Wistar rats. Description: Elevated plus maze (EPM), rats, microinjection into the dorsolateral periaqueductal gray. The format is in vivo. Here is the method: as §1, §2
Rats were submitted to a stereotaxic surgery to unilaterally implant cannulae (9.0 mm, 0.6 mm OD) into the dIPAG (coordinates: lateral: −1.9 mm; depth: −4.3 mm; angle: 16° from lambda; Paxinos and Watson, 2005), fixed to the skull with acrylic cement (Campos & Guimarães, 2008). The surgeries were performed under anesthesia with tribromoethanol 2.5% (10.0 mL/kg, IP) and immediately after the animals received Veterinary Pentabiotic (0.2 mL, intramuscular) and analgesic (Banamine, 1.0 mL/kg, subcutaneous) to prevent infections and decrease post-surgical pain. After surgery, animals underwent a recovery period of 5-7 days before the behavioral tests.
Animals received unilateral microinjections of vehicle or HU-475 into the dIPAG before being submitted to the behavioral tests. To this aim, microneedles (10.0 mm, 0.3 mm OD), connected to a microsyringe (Hamilton, USA, […]) through a segment of polyethylene (P10) were inserted into the guide cannulae. Solutions were injected with the help of an infusion pump (KD Scientific, USA). A 0.2 μL solution volume was injected over 1 min. After the injections, the needles remained inserted in the cannulae for additional 30 seconds to prevent drug reflux (Campos & Guimarães, 2008).
The wood EPM used to perform the experiments was located in a sound attenuated and temperature controlled room (23° C.), with one incandescent light (40 W) placed 1.3 m away from the maze. The apparatus consists of two opposing open arms (50×10 cm) without side walls, perpendicular to two enclosed arms (50×10×40 cm), with a central platform common to all arms (10×10 cm). The apparatus is elevated 50 cm above the ground and has an acrylic edge (1 cm) in the open arms to prevent animal falls. In this model, rodents naturally avoid the open arms, exploring more extensively the enclosed arms. […] The test lasted for 5 min and was recorded. The animal behavior was analyzed with the help of the Anymaze Software (version 4.5, Stoelting). […]
as §3

The test system of experiment [6] is Swiss mice. To be noted: single administration i.p., MK801 0.3-1 mg/kg i.p.; 1 and 15 mg/kg also tested; cited from earlier work.
The test system of experiment [7] is Male Wistar rats. The conditions noted are these: intra-dlPAG; doses tested 15, 30 and 60 nmol; cited from earlier work.
Experiment [8] relates to Swiss mice. To be noted: cited from earlier work.
Experiment [9] deals with Swiss mice. The conditions noted are these: i.p., doses tested 3, 10, 30 and 100 mg/kg; cited from earlier work.
In experiment [10] the test system is rats. To be noted: Vogel punished licking test, intra-dlPAG; cited from earlier work.

Values joined by “and” are separate entries in the source; they are usually repeats but may differ in a detail not shown here. Identical values can stand only once.

For `CC(N)Cc1ccccc1` (stereo not shown) [amphetamine, reference compound], the “effect on PPI” value in experiment [1] (amphetamine 10 mg/kg i.p., all intensities (90, 85, 80 dB), Duncan p<0.05) is on record as “impaired PPI”.

For `C=C(C)[C@@H]1CCC(C)=CC1c1c(O)cc(CCCCC)c(F)c1O` (stereo partly shown) [HU-474, 4′-fluoro-cannabidiol], the “effect on MK-801 PPI disruption” value in [2] (10 mg/kg i.p., MK-801 0.5 mg/kg, all prepulse intensities (80, 85, 90 dB), P<0.05) is on record as “attenuated”. Besides, the “effective dose against MK-801 PPI disruption” value in experiment [2] (i.p., 3 and 10 mg/kg tested) was found to be 10 mg/kg. Moreover, the “immobility time in the FST” value in [3] (dose of 3 mg/kg IP (printed 3 m/kg), p=0.019) is reported as “decreased”. The “immobility time in the FST” value in experiment [3] (doses of 1 and 10 mg/kg IP) is listed as “ineffective”. The “potency relative to CBD” value in experiment [3] (forced swimming test, comparison of effective doses) is 10 times. In addition, in experiment [4] (1, 3 and 10 mg/kg IP), the “number of enclosed arms entries” value was “No effect” and the “percentage of entries onto the open arms” value is “No effect”. The “percentage of time spent in the open arms” value in experiment [4] (1, 3 and 10 mg/kg IP, vs vehicle, X2=8.13, p<0.05) was “increased”. The “effective dose (anxiolytic-like effect in the EPM)” value in experiment [4] (systemic administration, bell-shaped dose-response curve) was determined as 3 mg/kg.

For the compound `C[C@]12N[C@H](Cc3ccccc31)c1ccccc12` [MK-801, reference compound], the “effect on PPI” value in experiment [2] (MK-801 0.5 mg/kg i.p., all prepulse intensities, P<0.05) is “significant PPI disruption”.

For `C=C(CF)[C@@H]1CCC(C)=CC1c1c(OC(C)=O)cc(CCCCC)cc1OC(C)=O` (stereo partly shown) [HU-475, 10-fluoro-cannabidiol diacetate], in experiment [5] (1, 3 and 10 nmol intra-dlPAG), the “number of enclosed arm entries” value is “No effect”. Also, in experiment [5] (1, 3 and 10 nmol intra-dlPAG, vs vehicle, X2=8.5, p=0.075 (trend)), the “percentage of time spent in the open arms” value is on record as “tended to do the same”. Moreover, the “percentage of entries onto the open arms” value in experiment [5] (1, 3 and 10 nmol intra-dlPAG, vs vehicle, X2=9.66, p<0.05) was “increased”. Also, the “potency relative to CBD” value in [5] (EPM, intra-dlPAG injection, comparison of effective doses) is 10 times.

Regarding `C=C(C)[C@@H]1CCC(C)=C[C@H]1c1c(O)cc(CCCCC)cc1O` [CBD, Cannabidiol], the “effective dose attenuating PPI deficits caused by MK801” value in experiment [6] is on record as 5 mg/kg. For the same compound, the “effective dose (anxiolytic-like effect in the EPM)” value in experiment [7] is 30 nmol. Moreover, in experiment [8], the “dose able to attenuate the hyper-locomotion induced by MK801” value was 30 mg/kg; the “effective doses, hyperlocomotion induced by d-amphetamine” value was 30 mg/kg and 60 mg/kg. For the same compound, in [1] (CBD 30 and 60 mg/kg ip, intensities of 85 and 80 dB, amphetamine 10 mg/kg), the “effect on PPI impairment by amphetamine” value is recorded as “attenuated”. The “dose producing an antidepressant-like effect in the forced swimming test” value in experiment [9] is 30 mg/kg. For the same compound, the “dose producing an anxiolytic-like effect” value in experiment [10] was 30 nmol.
